This passage reports apoptosis and cisplatin-induced apoptosis results from patent publication EP1283052A1, “Pharmaceutical composition containing caspase-8 and /or caspase-9 useful for overcoming glucocorticoid- and cancer therapy-induced apoptosis of tumours” (Deutsches Krebsforschungszentrum Stiftung des öffentlichen …, priority 2001, dated 2003).

SMILES strings stand for the structures.

Assay [1] deals with P5 and HeLa cervix carcinoma cells. Description: Apoptosis by annexin-V/FITC staining and flow cytometry in cervix carcinoma cells. The settings on record: cisplatin 2 µg/ml, absence of DEX, 24-72 h; Fig. 1b. The class given is cell-based, human. The procedure:
• (a) Human epidermoid lung cancer cells (P693) were injected into nude mice. At a tumour volume of 500 mm^3 weekly treatment with cisplatin (5mg/kg/week) was started. Cisplatin was injected intraperitoneally in the absence (CIS) or presence (DEX/CIS) of DEX which was added to the drinking water (0.28 mg/L) for the duration of the experiment. […] As controls, tumor growth of xenografts from mice which received neither cisplatin nor DEX (CO) or from mice which received DEX only (DEX) was determined. The tumour volume in each animal was measured at weekly intervals for a period of 5 weeks. Data are presented as the means +/- SD of 6 to 8 animals. • (b) The human cervical carcinoma cell lines HeLa and P5 were γ-irradiated (10 Gy) or treated with cisplatin (2 µg/ml) in the absence (white bars) or presence (black bars) of DEX (1 µM). The percentage of apoptosis was measured in untreated (CO) and stimulated cells by annexin-staining and FACS-analysis at the time points indicated. (c) P5, P693 and human leukemic T cells (CEM) cells were treated with cisplatin (2 µg/ml) in the absence or presence of DEX as indicated. 24 and 48 h following treatment cells were lysed and caspase-3 activity was determined by a fluorescent caspase-3 assay and spectroscopy.
A general note: A flow cytometer gives signals particle by particle.

The next assay deals with P5 cells. The assay can be described thus: Specific apoptosis in P5 cells stably transfected with pcDNA3 or FADD-DN. The class given is cell-based, human. The following applies: 48 h, cisplatin 2 µg/ml; Fig. 2c right. How it is done:
• (a) Left: P5 an CEM cells were treated with cisplatin (1-5 µg/ml) in the absence or presence of DEX (1 µM) as indicated. Proteins were extracted and expression of CD95-L, TRAIL or TNF-α was detected by Western blot analysis. The size of the proteins in kDa is indicated. Right: HeLa and P5 were treated with CD95 agonistic antibody αAPO-1 (CD95, 1 µg/ml), recombinant TRAIL protein (TRAIL, 100 ng/ml) or recombinant TNF-α protein (TNF-α, 100 ng/ml) in the absence (white bars) or presence (black bars) of DEX (1 µM). 24 h later the percentage of apoptosis was determined by annexin-staining and FACS-analysis in untreated (CO) and stimulated cells at the time points indicated. • (b) P693 and CEM cells were treated with cisplatin (2 µg/ml) in the absence or presence of DEX as indicated. 24 and 48 h following treatment cells were lysed and caspase-8 activity was determined by a fluorescent caspase-8 assay and spectroscopy. • (c) P5 cells were stable transfected with empty vector (pcDNA3), or pcDNA3 vector encoding dominant negative FADD protein (FADD-DN). Proteins were extracted from both cell lines and expression of wildtype (WT) and FADD-DN (DN) was detected by Western blot. Left: Stable transfected P5 cells were treated with αAPO-1 (1 µg/ml) and 24 h later apoptosis was determined by staining with annexin/propidium iodide and flow-cytometry. […]

With `N.N.[Cl][Pt][Cl]` [cisplatin], the apoptosis result in assay [1] is “detectable 24 h following treatment and increased during the next 48 and 72 h”. For the same compound, the cisplatin-induced apoptosis entry with P5 cells is recorded as “about 80%”.
